# Experiments:
# [1] = Determination of the microsomal half-life / microsomal clearance, human liver microsomes; conditions: 0.5 μM test substance, 0.25 mg microsomal protein/ml, pH 7.4, 37° C., NADPH
# Experimental: (§1) The test substances were incubated in a concentration of 0.5 μM as follows:
# (§2) 0.5 μM test substance are preincubated together with liver microsomes from different species (from rat, human or other species) (0.25 mg of microsomal protein/ml) in 0.05 M potassium phosphate buffer of pH 7.4 in microtiter plates at 37° C. for 5 min. The reaction is started by adding NADPH (1 mg/mL). After 0, 5, 10, 15, 20 and 30 min, 50 μl aliquots are removed, and the reaction is immediately stopped and cooled with the same volume of acetonitrile. The samples are frozen until analyzed. The remaining concentration of undegraded test substance is determined by MSMS. The half-life (T½) is determined from the gradient of the signal of test substance/unit time plot, it being possible to calculate the half-life of the test substance, assuming first order kinetics, from the decrease in the concentration of the compound with time. The microsomal clearance (mCl) is calculated from mCl=ln 2/T½/(content of microsomal protein in mg/ml)×1000 [ml/min/mg]
# [2] = Determination of the microsomal half-life / microsomal clearance, rat liver microsomes; conditions: 0.5 μM test substance, 0.25 mg microsomal protein/ml, pH 7.4, 37° C., NADPH
# Experimental: as §1, §2
# PDE10A = PDE10A (UniProt Q9Y233); experiment: Measurement of PDE activity (HTRF cAMP assay, recombinant enzyme); format: biochemical; conditions: 20 nM cyclic nucleotide substrate, 60 minutes at 29 C
# Experimental: The recombinant PDE proteins are used in in vitro enzymatic reaction for measurement of PDE activity. These recombinant proteins, including PDE10A (human, rat and mouse PDE10) and isoforms of PDEs 1, 3, 4, and 5, were purchased from commercial vendor BPS Bioscience. The enzymatic activity of PDEs was determined by cAMP measurement kit from CisBio (IBA) using HTRF technology.
# The PDE enzymatic reaction was carried out in assay buffer (20 mM Tris-HCl pH7.5, 10 mM MgCl2, 0.1% bovine serum albumin) containing enzyme and substrate. The PDE enzymes concentration ranged from 10 pM-250 pM, depending on each enzyme's specific activity. The substrate cyclic nucleotide (cAMP or cGMP) concentration used in the assay was 20 nM for PDE10, and 100 nM for other PDEs. The inhibitory effect of compound was determined by incubating various concentration of inhibitor in the enzymatic assay. Typically, compound was serial diluted in DMSO then further diluted in assay buffer. Next, the compound at varying concentration was mixed with PDE enzyme. The reaction was initiated by addition of cyclic nucleotide substrate, and incubated for 60 minutes at 29 C. The reaction was stopped by addition of lysis buffer from assay kit. The cAMP-d2 and anti-cAMP cryptate in the lysis buffer detected the level of cAMP left from the PDE hydrolysis reaction. The PDE activity is reversely correlated with the amount of cAMP left in the reaction and can be converted to the percent activity of an uninhibited control (100%). Thus, IC50 value of inhibitor can be obtained by plotting inhibitor concentration against PDE activity at that concentration.
Molecule,Human mCl [1],Rat mCl [2],IC50 (PDE10A) [nM]
"Cn1cc2c(c(-c3cn[nH]c3)c1=O)C(=O)N(CCc1ccc3ccccc3n1)C2 [Example 29, 5-Methyl-7-(1H-pyrazol-4-yl)-2-(2-quinolin-2-yl-ethyl)-3,5-dihydro-2H-pyrrolo[3,4-c]pyridine-1,6-dione]",+++ (+++ <10 μl min^−1 mg^−1),++ (++: <100 μl min^−1 mg^−1),> 500
"Cn1cc2c(c(-c3ccncc3)c1=O)C(=O)N(CCc1nc3ccccc3s1)C2 [Example 32, 2-[2-(1,3-benzothiazol-2-yl)ethyl]-5-methyl-7-(4-pyridyl)-3,5-dihydro-2H-pyrrolo[3,4-c]pyridine-1,6-dione]",+++ (+++ <10 μl min^−1 mg^−1),+++ (+++ <10 μl min^−1 mg^−1),> 500
"CC(C)n1cc2c(c(N3CCOCC3)c1=O)C(=O)N(CCc1ccc3ccccc3n1)C2 [Example 17, 5-Isopropyl-7-morpholin-4-yl-2-(2-quinolin-2-yl-ethyl)-3,5-dihydro-2H-pyrrolo[3,4-c]pyridine-1,6-dione]",++ (++: <100 μl min^−1 mg^−1),++ (++: <100 μl min^−1 mg^−1),< 100
"Cn1cc2c(c(N3CCOCC3)c1=O)C(=O)N(CCc1cn3ccccc3n1)C2 [Example 22, 2-(2-Imidazo[1,2-a]pyridin-2-yl-ethyl)-5-methyl-7-morpholin-4-yl-3,5-dihydro-2H-pyrrolo[3,4-c]pyridine-1,6-dione]",+++ (+++ <10 μl min^−1 mg^−1),++ (++: <100 μl min^−1 mg^−1),< 100
"Cn1cc2c(c(N3CCS(=O)(=O)CC3)c1=O)C(=O)N(CCc1ccc3ccccc3n1)C2 [Example 12, 5-Methyl-7-(1,1-dioxo-thiomorpholin-4-yl)-2-(2-quinolin-2-yl-ethyl)-3,5-dihydro-2H-pyrrolo[3,4-c]pyridine-1,6-dione]",++ (++: <100 μl min^−1 mg^−1),+++ (+++ <10 μl min^−1 mg^−1),100 to 200
"Cn1nccc1-c1c2c(cn(C)c1=O)CN(CCc1ccc3ccccc3n1)C2=O [Example 30, 5-Methyl-7-(2-methyl-2H-pyrazol-3-yl)-2-(2-quinolin-2-yl-ethyl)-3,5-dihydro-2H-pyrrolo[3,4-c]pyridine-1,6-dione]",–,–,> 500
"2-(2-Imidazo[1,2-a]pyridin-2-yl-ethyl)-5-methyl-7-morpholin-4-yl-3,5-dihydro-2H-pyrrolo[3,4-c]pyridine-1,6-dione [Example 23]",–,–,> 500
"5-Methyl-7-morpholin-4-yl-2-(2-[1,2,4]triazolo[1,5-a]pyridin-2-yl-ethyl)-5H-pyrrolo[3,4-c]pyridine-1,3,6-trione [Example 5]",–,–,> 500
"Cn1cc2c(c(N3CCOCC3)c1=O)C(=O)N(CCc1ccc3ccccc3n1)C2(F)F [Example 35, 3,3-Difluoro-5-methyl-7-morpholin-4-yl-2-(2-quinolin-2-yl-ethyl)-3,5-dihydro-2H-pyrrolo[3,4-c]pyridine-1,6-dione]",–,–,< 100
"Cn1cc2c(c(-c3ccncc3)c1=O)C(=O)N(CCc1ccc3ccccc3n1)C2 [Example 11, 5-Methyl-7-pyridin-4-yl-2-(2-quinolin-2-yl-ethyl)-3,5-dihydro-2H-pyrrolo[3,4-c]pyridine-1,6-dione]",–,–,100 to 200
"Cn1cc2c(c(-c3ccncc3)c1=O)CN(CCc1ccc3ccccc3n1)C2=O [Example 8, 5-Methyl-7-pyridin-4-yl-2-(2-quinolin-2-yl-ethyl)-1,2-dihydro-5H-pyrrolo[3,4-c]pyridine-3,6-dione]",–,–,> 500
"CN1CCN(c2c3c(cn(C)c2=O)CN(CCc2ccc4ccccc4n2)C3=O)CC1 [Example 10, 5-Methyl-7-(4-methyl-piperazin-1-yl)-2-(2-quinolin-2-yl-ethyl)-3,5-dihydro-2H-pyrrolo[3,4-c]pyridine-1,6-dione]",+++ (+++ <10 μl min^−1 mg^−1),+++ (+++ <10 μl min^−1 mg^−1),–
